Measurements: patent US12509452B2, “Substituted-isoxazoline-containing aromatic compound, preparation method therefor, herbicidal composition and use thereof” (QINGDAO KINGAGROOT CHEMICAL COMPOUND CO., LTD., priority 2019, dated 2025)

Assays:
Assay in all cases: weeding effect in post-emergence stage
Format in all cases: in vivo
Rorippa indica = system: Rorippa indica
Summary of the method: (§1)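 Read-out is fresh weight growth control rate, binned into levels 0-5 (Level 5 above 85%, Level 0 below 5%), recorded 3 weeks after spraying and averaged over three repeats. Plants were treated at the 2-3 leaf stage with 7.5-500 g a.i./ha plus methyl oleate synergist.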

Alopecurus japonicus = system: Alopecurus japonicus
Summary of the method: as §1

Conyza japonica = system: Conyza japonica
Summary of the method: as §1

Beckmannia syzigachne = system: Beckmannia syzigachne
Summary of the method: as §1

Structure (SMILES) | weeding effect in post-emergence stage, Rorippa indica (activity level) (Rorippa indica; dose 15 g a.i./ha) | weeding effect in post-emergence stage, Alopecurus japonicus (activity level) (Alopecurus japonicus; dose 15 g a.i./ha) | weeding effect in post-emergence stage, Conyza japonica (activity level) (Conyza japonica; dose 15 g a.i./ha) | weeding effect in post-emergence stage, Beckmannia syzigachne (activity level) (Beckmannia syzigachne; dose 15 g a.i./ha) | weeding effect in post-emergence stage, Rorippa indica (activity level) (Rorippa indica; dose 125 g a.i./ha) | weeding effect in post-emergence stage, Alopecurus japonicus (activity level) (Alopecurus japonicus; dose 125 g a.i./ha) | weeding effect in post-emergence stage, Conyza japonica (activity level) (Conyza japonica; dose 125 g a.i./ha) | weeding effect in post-emergence stage, Beckmannia syzigachne (activity level) (Beckmannia syzigachne; dose 125 g a.i./ha)
CCOC(=O)[C@@]1(C2CCC2)CC(c2cc(-n3c(=O)cc(C(F)(F)F)n(C)c3=O)c(F)cc2Cl)=NO1 [126(S)] | 5 (Level 5: growth control rate is above 85%) | 5 (Level 5: growth control rate is above 85%) | 5 (Level 5: growth control rate is above 85%) | 5 (Level 5: growth control rate is above 85%) |  |  |  | 
COC(=O)[C@@]1(F)CC(c2cc(-n3c(=O)cc(C(F)(F)F)n(C)c3=O)c(F)cc2Cl)=NO1 [129(S)] | 5 (Level 5: growth control rate is above 85%) | 5 (Level 5: growth control rate is above 85%) | 5 (Level 5: growth control rate is above 85%) | 5 (Level 5: growth control rate is above 85%) |  |  |  | 
CCOC(=O)[C@]1(CF)CC(c2cc(-n3c(=O)cc(C(F)(F)F)n(C)c3=O)c(F)cc2Cl)=NO1 [132(S)] | 5 (Level 5: growth control rate is above 85%) | 5 (Level 5: growth control rate is above 85%) | 5 (Level 5: growth control rate is above 85%) | 5 (Level 5: growth control rate is above 85%) |  |  |  | 
CCOC(=O)[C@]1(C(F)F)CC(c2cc(-n3c(=O)cc(C(F)(F)F)n(C)c3=O)c(F)cc2Cl)=NO1 [134(S)] | 5 (Level 5: growth control rate is above 85%) | 5 (Level 5: growth control rate is above 85%) | 5 (Level 5: growth control rate is above 85%) | 5 (Level 5: growth control rate is above 85%) |  |  |  | 
CCOC(=O)[C@]1(C(F)(F)F)CC(c2cc(-n3c(=O)cc(C(F)(F)F)n(C)c3=O)c(F)cc2Cl)=NO1 [135(S)] | 5 (Level 5: growth control rate is above 85%) | 5 (Level 5: growth control rate is above 85%) | 5 (Level 5: growth control rate is above 85%) | 5 (Level 5: growth control rate is above 85%) |  |  |  | 
CCOC(=O)[C@@]1(CCF)CC(c2cc(-n3c(=O)cc(C(F)(F)F)n(C)c3=O)c(F)cc2Cl)=NO1 [136(S)] | 5 (Level 5: growth control rate is above 85%) | 5 (Level 5: growth control rate is above 85%) | 5 (Level 5: growth control rate is above 85%) | 5 (Level 5: growth control rate is above 85%) |  |  |  | 
CCOC(=O)[C@@]1(CO)CC(c2cc(-n3c(=O)cc(C(F)(F)F)n(C)c3=O)c(F)cc2Cl)=NO1 [142(S)] | 5 (Level 5: growth control rate is above 85%) | 5 (Level 5: growth control rate is above 85%) | 5 (Level 5: growth control rate is above 85%) | 5 (Level 5: growth control rate is above 85%) |  |  |  | 
CCOC(=O)[C@@]1(C=O)CC(c2cc(-n3c(=O)cc(C(F)(F)F)n(C)c3=O)c(F)cc2Cl)=NO1 [152(S)] | 5 (Level 5: growth control rate is above 85%) | 5 (Level 5: growth control rate is above 85%) | 5 (Level 5: growth control rate is above 85%) | 5 (Level 5: growth control rate is above 85%) |  |  |  | 
CCOC(=O)[C@@]1(C(C)C)CC(c2cc(-n3c(=O)n(C)c(=S)n(C)c3=S)c(F)cc2Cl)=NO1 [204(S)] | 5 (Level 5: growth control rate is above 85%) | 5 (Level 5: growth control rate is above 85%) | 5 (Level 5: growth control rate is above 85%) | 5 (Level 5: growth control rate is above 85%) |  |  |  | 
CCCC[C@@]1(C(=O)OCC)CC(c2cc(-n3c(=O)n(C)c(=S)n(C)c3=S)c(F)cc2Cl)=NO1 [205(S)] | 5 (Level 5: growth control rate is above 85%) | 5 (Level 5: growth control rate is above 85%) | 5 (Level 5: growth control rate is above 85%) | 5 (Level 5: growth control rate is above 85%) |  |  |  | 
CCOC(=O)[C@]1(C(F)(F)F)CC(c2cc(-n3c(=O)n(C)c(=S)n(C)c3=S)c(F)cc2Cl)=NO1 [206(S)] | 5 (Level 5: growth control rate is above 85%) | 5 (Level 5: growth control rate is above 85%) | 5 (Level 5: growth control rate is above 85%) | 5 (Level 5: growth control rate is above 85%) |  |  |  | 
CCOC(=O)[C@@]1(COC=O)CC(c2cc(-n3c(=O)cc(C(F)(F)F)n(C)c3=O)c(F)cc2Cl)=NO1 [218(S)] | 5 (Level 5: growth control rate is above 85%) | 5 (Level 5: growth control rate is above 85%) | 5 (Level 5: growth control rate is above 85%) | 5 (Level 5: growth control rate is above 85%) |  |  |  | 
CCOC(=O)[C@@]1(COC(=O)C(=O)O)CC(c2cc(-n3c(=O)cc(C(F)(F)F)n(C)c3=O)c(F)cc2Cl)=NO1 [220(S)] | 5 (Level 5: growth control rate is above 85%) | 5 (Level 5: growth control rate is above 85%) | 5 (Level 5: growth control rate is above 85%) | 5 (Level 5: growth control rate is above 85%) |  |  |  | 
COC(=O)[C@]1(OC)CC(c2cc(-n3c(=O)cc(C(F)(F)F)n(C)c3=O)c(F)cc2Cl)=NO1 [226(S)] | 5 (Level 5: growth control rate is above 85%) | 5 (Level 5: growth control rate is above 85%) | 5 (Level 5: growth control rate is above 85%) | 5 (Level 5: growth control rate is above 85%) |  |  |  | 
CCOC(=O)[C@]1(CC)CC(c2cc(-n3c(=S)cc(C(F)(F)F)n(C)c3=O)c(F)cc2Cl)=NO1 [228(S)] |  |  |  |  | 5 (Level 5: growth control rate is above 85%) | 5 (Level 5: growth control rate is above 85%) | 5 (Level 5: growth control rate is above 85%) | 5 (Level 5: growth control rate is above 85%)
CCOC(=O)[C@]1(CC)CC(c2cc(-n3c(=O)cc(C(F)(F)F)n(C)c3=S)c(F)cc2Cl)=NO1 [229(S)] | 5 (Level 5: growth control rate is above 85%) | 5 (Level 5: growth control rate is above 85%) | 5 (Level 5: growth control rate is above 85%) | 5 (Level 5: growth control rate is above 85%) |  |  |  | 
CCOC(=O)C1(C)CC(c2cc(-n3c(=O)cc(C(F)(F)F)n(C)c3=O)c(F)cc2Cl)=NO1 (centres unmarked) [Compound 1-9] | 5 (Level 5: growth control rate is above 85%) | 5 (Level 5: growth control rate is above 85%) | 5 (Level 5: growth control rate is above 85%) | 5 (Level 5: growth control rate is above 85%) |  |  |  | 
CCOC(=O)CCC1(C)CC(c2cc(-n3c(=O)cc(C(F)(F)F)n(C)c3=O)c(F)cc2Cl)=NO1 (centres unmarked) [Compound 1-37] | 5 (Level 5: growth control rate is above 85%) | 5 (Level 5: growth control rate is above 85%) | 5 (Level 5: growth control rate is above 85%) | 5 (Level 5: growth control rate is above 85%) |  |  |  | 
CCOC(=O)CCCC1(C)CC(c2cc(-n3c(=O)cc(C(F)(F)F)n(C)c3=O)c(F)cc2Cl)=NO1 (centres unmarked) [Compound 1-39] | 5 (Level 5: growth control rate is above 85%) | 5 (Level 5: growth control rate is above 85%) | 5 (Level 5: growth control rate is above 85%) | 5 (Level 5: growth control rate is above 85%) |  |  |  | 
COC(=O)C1(C)CC(c2cc(-n3c(=O)n(C)c(=S)n(C)c3=O)c(F)cc2Cl)=NO1 (centres unmarked) [Compound 1-60] | 5 (Level 5: growth control rate is above 85%) | 5 (Level 5: growth control rate is above 85%) | 5 (Level 5: growth control rate is above 85%) | 5 (Level 5: growth control rate is above 85%) |  |  |  | 
